{"source": "patent US20240391928A1", "about": "“COMPOSITIONS FOR THE TREATMENT OF FOOD AND CHEMICAL ADDICTION AND METHODS OF MAKING AND USING SAME” (Duke University, priority 2021, published 2024)", "key": {"hGHSR1a^WT [1]": {"molecular_target": "T1, hGHSR1a^WT (Homo sapiens, UniProt Q92847)", "T1 sequence (Q92847 whole entry)": "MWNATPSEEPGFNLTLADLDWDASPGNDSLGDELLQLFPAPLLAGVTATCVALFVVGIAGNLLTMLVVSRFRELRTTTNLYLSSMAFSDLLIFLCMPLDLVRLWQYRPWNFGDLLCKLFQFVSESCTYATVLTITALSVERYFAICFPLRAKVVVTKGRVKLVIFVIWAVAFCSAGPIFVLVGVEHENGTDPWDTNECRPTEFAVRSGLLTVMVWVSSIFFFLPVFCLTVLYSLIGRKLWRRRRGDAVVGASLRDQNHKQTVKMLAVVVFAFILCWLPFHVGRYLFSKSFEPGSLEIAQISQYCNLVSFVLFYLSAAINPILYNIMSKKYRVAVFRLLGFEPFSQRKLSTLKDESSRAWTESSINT", "experiment": "SRF-RE transcriptional activity", "type": "cell-based", "design": "expressed in transfected cells; HEK293/S Gαq/11 KO and parental WT (iCa2+)", "method": "The next morning, media was removed and cells were serum starved with 90 μL of opti-MEM (containing no serum) for 2 hours at 37° C. Cells were then stimulated with 10× test compounds (diluted in serum-free opti-MEM) for 5 hours at 37° C. in a humidified incubator. Cells were then lysed in 20 μL of 1× passive lysis buffer (Promega) for 10 minutes on a shaker (RT). To measure luminescence, 40 μL of luciferin (in HBSS supplemented with 20 mM HEPES) was injected into in each well and immediately read by a Mithras 940 plate reader for 10 seconds."}, "hGHSR1a^WT [2]": {"molecular_target": "T1, hGHSR1a^WT", "experiment": "Gαq-dependent intracellular Ca2+ mobilization (iCa2+, miAeq)", "type": "cell-based", "design": "HEK293/T (transient); HEK293S Gαq knockout (transient, NanoBiT Gαq)", "method": "Gαq-Dependent Intracellular Ca^2+ Mobilization. […] Cells were split into and seeded into 10 cm dishes without antibiotic selection and grown to confluency overnight. The next morning, cells were serum starved in 10 mL of clear opti-MEM (supplemented with L-glutamine and HEPES; Gibco, Waltham, MA) for 3-4 hours in a 37° C. incubator with 5% CO2. Then, 25 μL of coelenterazine H (NanoLight Technology, Pinetop, AZ) was added to each 10 mL dish and incubated for another 1-2 hours. For antagonist assays, test compounds were either added directly to the media in 10 cm dishes, or cells were collected by gentle washing/trituration and plated onto white, clear-bottomed 96-well plates for 30 minutes—1 hour. Once the coelenterazine H (or antagonist) incubation was complete, cells were harvested from the 10 cm dish by gentle washing/trituration and collected in a 15 mL conical tube. Cell suspensions were then immediately subjected to assay by injecting cells onto a white, clear-bottomed 96-well plate containing 2× test compounds. Luminescence was read without delay and for 10 seconds per well. To control for cell number variability, cells were lysed in 2× lysis buffer (100 mM CaCl2+0.2% Triton-X) immediately following the assay. The max ligand-induced response (Ca^2+ mobilization: net-miAeq) over 10 seconds was normalized by dividing the ligand-induced luminescence counts (L-miAeq) by the ligand-induced luminescence counts (L-MiAeq) plus the luminescence measured upon cell lysis (Lysis-miAeq). Relative, lysis-normalized data were then normalized to the appropriate control/reference condition.\n(§1) For experiments with WT and Gt KO HEK293/S cells, […] of hGHSR1a^WT, 10 μg of miAEQ, and 2.5 μg of pcDNA3.1 was transiently transfected into 10 cm dishes and incubated overnight. […] Twenty-four hours later, experiments proceeded in accordance with the procedures described above. To control for any possible kinetic differences in genetically modified cell lines or GHSR1a variants, the average ligand-induced response over 10 seconds was calculated, then normalized by dividing the L-miAeq by the L-miAeq plus the Lysis-miAeq and normalized to the appropriate control/reference condition."}, "C57BL/6J mice": {"tested_on": "C57BL/6J mice", "experiment": "Cocaine-induced behavioral sensitization", "type": "in vivo, mouse", "settings": "N8279 5 mg/kg IP; cocaine 20 mg/kg", "method": "Next, cocaine-induced behavioral sensitization was assessed in male and female C57BL/6J mice following subchronic (8-day) administration of the vehicle or N8279 (5 mg/kg, IP) in the home-cage. Subsequently, mice were given the same treatments as described above, followed with an injection (IP) of vehicle or cocaine (20 mg/kg) in the open-field once per day for 5 days (FIG. 4D). A […] hiatus (washout) was imposed and behavioral sensitization was assessed the next day by giving (IP) vehicle or cocaine (challenge). […] By comparison, motor activities were stimulated acutely (day 1) to similar extents in the vehicle+cocaine and N8279+cocaine mice (FIG. 4E). […] Moreover, at challenge (day 11), locomotor activity was augmented relative to day 1 in the vehicle+cocaine mice, whereby no change in activity was evident in the N8279+cocaine mice.\nCocaine Sensitization. Male and female C57BL6/J mice (Jackson Labs, Bar Harbor, ME) were administered (IP) vehicle or N8279 (5 mg/kg) subchronically for 8 consecutive days (once/day) (FIG. 4D). Subsequently, mice were placed into the open-field (Accuscan Instruments, Columbus, OH) for 30 min, they were removed, injected (IP) with vehicle or N8279, returned to the open field for 30 min, then the mice were given (IP) vehicle or cocaine (20 mg/kg) and returned to the open-field for 120 minutes (FIG. 4D). […]"}, "human GHSR1a^WT (Gαq)": {"molecular_target": "human GHSR1a^WT (Gαq) (Homo sapiens, UniProt Q92847)", "sequence (Q92847 whole entry)": "as above", "experiment": "TRUPATH (BRET) Gαq dissociation"}, "hGHSR1a^A204E [3]": {"molecular_target": "T2, hGHSR1a^A204E (Homo sapiens, UniProt Q92847, A204E)", "T2 sequence (Q92847 whole entry A204E)": "as the sequence (Q92847 whole entry) above, with A204E counted along it", "settings": "C/R curve did not saturate"}, "[4]": {"molecular_target": "T3, hGHSR1a^WT in Gαq/11 KO HEK293/S cells (Homo sapiens, UniProt Q92847)", "T3 construct": "expressed in transfected cells; SRF-RE reporter); HEK293/S Gαq/11 KO and parental WT (iCa2+)", "experiment": "iCa2+ in Gαq/11 KO HEK293/S cells", "type": "cell-based", "settings": "10 μM ligand", "method": "as §1"}, "hGHSR1a^A204E [5]": {"molecular_target": "T2, hGHSR1a^A204E", "experiment": "iCa2+ at A204E variant", "type": "cell-based", "design": "expressed in transfected cells; host or cells: HEK293/T, transient", "method": "as §1"}}}
{"smiles": "COc1ccc(C(=O)c2c(C(=O)NCCCN(C)C)oc3ccc(Cl)cc3c2=O)cc1OC", "note": "[Example N8279, 6-Chloro-3-(3,4-dimethoxybenzoyl)-N-(3-(dimethylamino)propyl)-4-oxo-4H-chromene-2-carboxamide]", "values": [{"measurement": "SRF-RE potency reduction relative to L585", "setting": "hGHSR1a^WT [1]", "result": "~10", "unit": "fold"}, {"measurement": "SRF-RE potency reduction relative to ghrelin", "setting": "hGHSR1a^WT [1]", "result": "~15", "unit": "fold"}, {"measurement": "SRF-RE transcription efficacy in words", "setting": "hGHSR1a^WT [1]", "result": "full agonist"}, {"measurement": "iCa2+ EC50, fold more potent than own GHSR1a binding IC50", "setting": "hGHSR1a^WT [2]", "result": 41, "unit": "fold"}, {"measurement": "iCa2+ potency, fold less potent than L585", "setting": "hGHSR1a^WT [2]", "result": 3.4, "unit": "fold"}, {"measurement": "iCa2+ potency, fold less potent than MK-0677", "setting": "hGHSR1a^WT [2]", "result": 5.3, "unit": "fold"}, {"measurement": "iCa2+ potency, fold more potent than ghrelin", "setting": "hGHSR1a^WT [2]", "result": 8.9, "unit": "fold"}, {"measurement": "increase in ghrelin's iCa2+ potency by N8279", "setting": "hGHSR1a^WT [2]; N8279 10 μM, concomitant", "result": "~3", "unit": "fold"}, {"measurement": "modulation of ghrelin-induced iCa2+ in words", "setting": "hGHSR1a^WT [2]; concomitant N8279", "result": "weak ago-PAM activity"}, {"measurement": "iCa2+ efficacy in words", "setting": "hGHSR1a^WT [2]; relative to ghrelin", "result": "full agonist"}, {"measurement": "cocaine-induced behavioral sensitization in words", "setting": "C57BL/6J mice", "result": "delayed the appearance of sensitization across days and abrogated the expression of sensitization following washout"}, {"measurement": "BRET-Gαq potency, fold less potent than L585", "setting": "human GHSR1a^WT (Gαq)", "result": 1.7, "unit": "fold"}, {"measurement": "BRET-Gαq potency, fold less potent than ghrelin", "setting": "human GHSR1a^WT (Gαq)", "result": 6.1, "unit": "fold"}, {"measurement": "Gαq activation efficacy in words", "setting": "human GHSR1a^WT (Gαq); NanoBiT and BRET (TRUPATH) assays", "result": "full agonist"}, {"measurement": "Gαq dissociation potency reduction at GHSR1a^A204E vs WT", "setting": "hGHSR1a^A204E [3]", "result": "> 20", "unit": "fold"}, {"measurement": "agonist-induced iCa2+ in Gαq/11 KO cells", "setting": "[4]", "result": "abolished"}, {"measurement": "iCa2+ efficacy at GHSR1a^A204E in words", "setting": "hGHSR1a^A204E [5]", "result": "full agonism was retained"}, {"measurement": "iCa2+ potency reduction at GHSR1a^A204E vs WT", "setting": "hGHSR1a^A204E [5]", "result": 6.5, "unit": "fold"}]}
